The text below walks through data of patent publication US8106062B1, “Calcium channel blockers” (Diakron Pharmaceuticals, Inc., priority 2003, dated 2012).

For assay [1], the target named is T1, T-type calcium channels (α1G) (Homo sapiens, UniProt O43497).
T1 construct: expressed in transfected cells
The assay can be described thus: Patch-clamp assay for T-channel blockage in HEK cells. The format is cell-based. As to conditions: time course of T-channel blockage, 500 nM and 1 uM, preliminary numbers. On the procedure:
Specifically, individual HEK cells were tested in vitro using a patch-clamp assay for T-channel blockage. Tests were performed at concentrations of 500 nM and 1 uM, and the time course of the blockage was followed for a period of several minutes.
In the past, patch clamp assays for T-channel activity would measure inhibition of calcium-ion-mediated current over the course of only a few minutes, e.g., 2, 3, or 5 minutes. […] The assays described herein can be used to differentiate between conventional-type T-channel blockers, which usually show a time constant of blockage of a few seconds, and the long-acting T-channel blockers, which show time constants between 1 minute and 2, 4, 5, 10 or more minutes. It is the latter group of compounds that is particularly interesting and useful in the present invention.
T-type calcium channels (α1G) were stably expressed in HEK293 cells and maintained at 37° C. in DMEM. Cells were released from dishes using trypsin and EGTA or Accutase and studied within 4 hours of isolation. Individual cells were placed on the stage of an inverted microscope and patched with pipettes pulled from aluminasilicate glass capillary tubes, which had resistances of 0.8-1.5 Mohm. Currents were recorded using an Axopatch 200 (Axon Instruments, Inc.) and pClamp data acquisition software (8.1). The pipette solution contained (in mM): KCl 130, EGTA 11, HEPES 10, MgATP 5, pH=7.4. The bath solution contained (in mM): NaCl 140, CaCl2 1, HEPES 10, pH=7.4. Test compounds were diluted into bath solution to the desired concentration (100 nM-10 μM) from a stock solutions (3 or 10 mM in DMSO). Current measurements were made at 20-23° C. Cells were held at −110 mV in order to maximize occupancy in the closed state and depolarized for 100 ms to various potentials. Currents were capacity corrected using 16-64 subthreshold responses (voltage steps of 10 or 20 mV) and leak subtracted, based on linear interpolation between the current at the holding potential and 0 mV. Cells were moved from a control chamber to a chamber with test compound and the effect of the drug was assessed using a voltage clamp protocol that stepped to −30 mV for 100 ms from a holding potential of −110 mV once every 5 s. After each 10-13 minutes, the train protocol was interrupted and a full current voltage relationship obtained. In general for each compound, four cells were studied for a minimum of 13 minutes, two in drug at 500 nM and two at 1 μM. In some cases other concentrations were also studied. Data were analyzed using Matlab (Mathworks, Natick, Mass.). Drug efficacy was estimated using the relationship: Blocked Fraction=[Drug]/(IC50+[Drug])
The time course of block by drug was fit to a single exponential function: Peak Current=A*exp(−t/τ)+B where A is the initial amplitude of the current, B the final level, t the time after the cell was exposed to drug, and τ, the time constant, i.e. the time it took for the current to be reduced to within 1/e of its final value, B. In general, modification τs are influenced both by drug on rate and off rate, although washout was achievable for only one compound, so off rates are so slow (small) that T can be taken to essentially represent 1/kon. For some compounds despite the presence of the drug in the chamber, modification occurred with a delay. This was quantified from the time modification was first observed. […]
In general terms: The patch-clamp technique gives a direct electrical read-out from membranes.

Assay [2] relates to spontaneously hypertensive rats. The assay can be described thus: Systolic blood pressure (tail cuff) in spontaneously hypertensive rats after IV tail injection. The format is in vivo, rat. As to conditions: SHR. On the procedure: In addition to the referenced in vitro studies, in vivo studies have also been conducted. The in vivo hypertension model used here involves administration of compound to spontaneously hypertensive rats through IV tail injection of compound. Systolic blood pressure is then measured using a tail cuff.
Fifteen male spontaneously hypertensive rats (SHR) were used in these studies. The animals were 12 weeks old at arrival and 15 weeks old at the start of study. The animals were divided into five groups, with three animals in each group. The starting, baseline systolic blood pressure for all animals included in the study was 190-220 mmHg. The animals were housed in contact bedding. They were fed Purina 5008. Six days after arrival, the animals were trained in the blood pressure apparatus for four days before the start of the study.
Compounds were administered to the animals by tail vein injection. Dose levels were 0.5 mL. In each study, one group of animals served as control, while the others were injected with a dosage of a compound.
The study was conducted using the schedule set forth below: […]

Assay [3] has the same test system. As to conditions: 30 mg/Kg oral, cited from earlier work.
Where [4] appears, read: multiple dose study, three injections spaced about 25 hours apart, FIG. 2.
Setting [5] is: single dose 20 mg/Kg, IV tail injection, FIG. 1.

Some results are limits rather than exact numbers.

T1 sequence (O43497 whole entry): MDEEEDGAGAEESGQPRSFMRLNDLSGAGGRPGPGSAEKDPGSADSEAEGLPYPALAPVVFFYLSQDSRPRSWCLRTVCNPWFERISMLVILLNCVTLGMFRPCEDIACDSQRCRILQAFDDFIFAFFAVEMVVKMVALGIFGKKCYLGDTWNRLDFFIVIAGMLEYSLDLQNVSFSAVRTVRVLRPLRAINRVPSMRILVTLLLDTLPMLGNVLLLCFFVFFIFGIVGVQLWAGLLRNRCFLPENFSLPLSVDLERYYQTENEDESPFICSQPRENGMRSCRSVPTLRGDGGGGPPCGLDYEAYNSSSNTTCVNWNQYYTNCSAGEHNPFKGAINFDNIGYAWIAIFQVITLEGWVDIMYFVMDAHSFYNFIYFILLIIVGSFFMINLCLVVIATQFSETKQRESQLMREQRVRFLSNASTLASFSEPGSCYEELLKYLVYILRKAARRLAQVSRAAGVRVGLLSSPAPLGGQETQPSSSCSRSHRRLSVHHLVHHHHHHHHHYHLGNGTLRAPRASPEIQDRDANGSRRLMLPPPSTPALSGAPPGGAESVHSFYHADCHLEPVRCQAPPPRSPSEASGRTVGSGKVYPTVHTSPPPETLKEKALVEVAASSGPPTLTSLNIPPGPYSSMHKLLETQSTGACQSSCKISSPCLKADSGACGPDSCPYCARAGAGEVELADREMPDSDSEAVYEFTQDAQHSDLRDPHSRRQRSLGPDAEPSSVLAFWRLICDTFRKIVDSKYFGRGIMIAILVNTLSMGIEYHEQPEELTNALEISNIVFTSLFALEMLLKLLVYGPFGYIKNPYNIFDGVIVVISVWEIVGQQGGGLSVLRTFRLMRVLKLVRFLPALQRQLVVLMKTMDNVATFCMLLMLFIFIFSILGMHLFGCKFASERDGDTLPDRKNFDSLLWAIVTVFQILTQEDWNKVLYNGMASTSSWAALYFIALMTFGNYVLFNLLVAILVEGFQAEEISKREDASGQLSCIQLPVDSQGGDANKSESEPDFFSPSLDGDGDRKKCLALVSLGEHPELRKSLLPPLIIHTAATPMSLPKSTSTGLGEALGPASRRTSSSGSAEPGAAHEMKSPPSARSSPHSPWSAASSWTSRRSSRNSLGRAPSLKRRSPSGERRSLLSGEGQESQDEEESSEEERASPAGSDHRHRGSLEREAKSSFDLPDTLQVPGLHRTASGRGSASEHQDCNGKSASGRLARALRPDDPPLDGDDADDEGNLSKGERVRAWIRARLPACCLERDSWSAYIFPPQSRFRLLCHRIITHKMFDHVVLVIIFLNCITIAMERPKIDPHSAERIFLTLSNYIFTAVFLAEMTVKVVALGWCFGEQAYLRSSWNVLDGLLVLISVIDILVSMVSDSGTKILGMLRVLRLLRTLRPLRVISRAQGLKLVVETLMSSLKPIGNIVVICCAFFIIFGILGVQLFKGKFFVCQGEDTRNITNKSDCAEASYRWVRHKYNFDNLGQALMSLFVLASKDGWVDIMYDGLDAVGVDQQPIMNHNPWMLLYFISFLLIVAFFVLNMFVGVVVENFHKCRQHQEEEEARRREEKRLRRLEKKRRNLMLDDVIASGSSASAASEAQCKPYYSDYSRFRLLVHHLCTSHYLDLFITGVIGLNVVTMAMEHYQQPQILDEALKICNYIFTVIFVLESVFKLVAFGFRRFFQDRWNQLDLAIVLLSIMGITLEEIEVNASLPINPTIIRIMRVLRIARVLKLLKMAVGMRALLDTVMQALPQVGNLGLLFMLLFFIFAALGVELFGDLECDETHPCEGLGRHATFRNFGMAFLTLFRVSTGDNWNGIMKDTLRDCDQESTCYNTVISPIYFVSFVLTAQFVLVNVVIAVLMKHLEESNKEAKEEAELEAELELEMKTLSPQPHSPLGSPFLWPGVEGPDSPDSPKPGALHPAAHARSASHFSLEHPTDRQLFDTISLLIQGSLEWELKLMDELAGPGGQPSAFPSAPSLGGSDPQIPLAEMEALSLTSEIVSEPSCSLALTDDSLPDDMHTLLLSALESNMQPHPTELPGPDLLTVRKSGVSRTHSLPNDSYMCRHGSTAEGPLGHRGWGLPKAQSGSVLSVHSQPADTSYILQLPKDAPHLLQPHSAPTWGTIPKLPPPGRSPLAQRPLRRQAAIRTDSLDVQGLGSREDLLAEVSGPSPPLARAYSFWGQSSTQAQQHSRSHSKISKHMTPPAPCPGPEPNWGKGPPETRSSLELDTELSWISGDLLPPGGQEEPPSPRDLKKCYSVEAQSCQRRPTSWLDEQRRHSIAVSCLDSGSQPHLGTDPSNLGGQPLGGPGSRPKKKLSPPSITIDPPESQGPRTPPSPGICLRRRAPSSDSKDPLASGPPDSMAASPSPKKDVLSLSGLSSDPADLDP

For `CCCCCCCCCCCCCCCc1cccc(OC(C)C)c1C1C(C(=O)OC)=C(C)NC(C)=C1C(=O)OC` [PPK5, dimethyl 1,4-dihydro-4-(2′-isopropoxy-6′-pentadecylphenyl)-2,6-dimethyl-3,5-pyridine dicarboxylate], in assay [1], the Time constant was 8 min. In assay [2] (setting [4]), the “additional blood pressure drop after the second injection” value is given as around 12 mmHg and the “blood pressure drop after first injection” value was “about 55 mmHg”. For the same molecule, the “time systolic pressure remained at the reduced level” value in assay [2] (single dose 20 mg/Kg, IV tail injection) is above 24 h. Besides, in assay [2] (setting [5]), the “systolic pressure drop in the first 5 hours” value is reported as “about 48 mmHg” and the “systolic pressure drop in the first 10 hours” value is on record as “about 55 mmHg”.

`COCC(=O)O[C@]1(CCN(C)CCCc2nc3ccccc3[nH]2)CCc2cc(F)ccc2[C@@H]1C(C)C` [Mibefradil]: in assay [3] (FIG. 1), the “systolic blood pressure drop in the first 5 hours” value is given as “about 85 mmHg” and the “systolic blood pressure recovery by the end of 24 hours” value was “about 45 mmHg”. In addition, in assay [3] (FIG. 2), the “rapid drop of blood pressure” value is 85 mmHg and the “recovery of blood pressure within 24 hours of administration” value was “more than 50%”.

Take `CCCCCCCCCCCCCCCc1cccc(OCC)c1C1C(C(=O)OCC)=C(C)NC(=S)N1C(=O)CC` (centres unmarked) [PPK50, 1,2,3,4-tetrahydro-6-methyl-4-[2-ethoxy-6-pentadecylphenyl]-3-(1-oxo-propyl)2-thioxo-5-pyrimidine carboxylic acid ethyl ester]: the Time constant in assay [1] came out at 10 min.

With “3,6-dihydro-4-methyl-6-[2-ethoxy-6-pentadecylphenyl]-2-oxo-1,5-(2H)-pyrimidinedicarboxylic acid 1-ethyl 5-isopropyl diester [PPK35]”, the Time constant in assay [1] was determined as 10 min.

With `CCCCCCCCCCCCCCCc1cccc(OC)c1C1NC(=O)NC(C)=C1C(=O)OCC` (centres unmarked) [PPK22, 5-ethoxycarbonyl-4-(2-methoxy-6-pentadecylphenyl)-6-methyl-3,4-dihydropyrimidin-2(1H)-one], the Time constant in assay [1] stood at 1 min.

As for `CCCCCCCCCCCCCCCc1cccc(OC(C)C)c1C1C(C(=O)OCC)=C(C)NC(=S)N1C(=O)CC` (centres unmarked) [PPK51, 1,2,3,4-tetrahydro-6-methyl-4-[2-isopropoxy-6-pentadecylphenyl]-3-(1-oxo-propyl)2-thioxo-5-pyrimidine carboxylic acid ethyl ester], in assay [1], the Time constant was determined as 13 min.
